# Values quoted from earlier work, collected in PubChem BioAssay AID1259410 (Chemical Carcinogenesis Research Information System (CCRIS), 2018).
# Tested on: rodent tumor promotion studies, tumor incidence
# Assay: CCRIS tumor promotion studies
smiles,measurement,setting,value
ClC1(Cl)C2(Cl)C3(Cl)C4(Cl)C(Cl)(Cl)C5(Cl)C3(Cl)C1(Cl)C5(Cl)C24Cl (stereo unspecified),outcome,"Carcinogen: 7,12-DIMETHYLBENZ[A]ANTHRACENE, 57-97-6, Doses [Carcinogen]: 200 NMOL IN 200 µL ACETONE ONCE, Doses [Promoter]: 0, 25, 50, 100, 200 NMOL IN 200 µL ACETONE 3/WK FOR 20 WK (STUDY DURATION: 20 WK), Doses [Promoter]: 0, 25, 50, 100, 200 NMOL IN 200 µL ACETONE 3/WK FOR 20 WK (STUDY DURATION: 20 WK), Route [Carcinogen]: DERMAL, Route [Promoter]: DERMAL, Species: MOUSE, Strain/Sex: CD-1/FEMALE",skin: tumor
same,outcome,"Carcinogen: 7,12-DIMETHYLBENZ[A]ANTHRACENE, 57-97-6, Doses [Carcinogen]: 200 NMOL IN 200 µL ACETONE ONCE, Doses [Promoter]: 0, 25, 50, 100 NMOL IN 200 µL ACETONE 3/WK FOR 34 WK (STUDY DURATION: 34 WK), Doses [Promoter]: 0, 25, 50, 100 NMOL IN 200 µL ACETONE 3/WK FOR 34 WK (STUDY DURATION: 34 WK), Route [Carcinogen]: DERMAL, Route [Promoter]: DERMAL, Species: MOUSE, Strain/Sex: CD-1/FEMALE",skin: tumor
same,outcome,"Carcinogen: 7,12-DIMETHYLBENZ[A]ANTHRACENE, 57-97-6, Doses [Carcinogen]: 200 NMOL IN 200 µL ACETONE ONCE, Doses [Promoter]: 0, 200 NMOL IN 200 µL ACETONE 2/WK FOR 20 WK BEGINNING 1 WK POST CARCINOGEN DOSE (STUDY DURATION: 21 WK), Route [Carcinogen]: DERMAL, Route [Promoter]: DERMAL, Species: MOUSE, Strain/Sex: CD-1/FEMALE",skin: tumors
same,outcome,"Carcinogen: 7,12-DIMETHYLBENZ[A]ANTHRACENE, 57-97-6, Doses [Carcinogen]: 200 NMOL IN 200 µL ACETONE ONCE, Doses [Promoter]: 0, 200 NMOL IN 200 µL ACETONE 3/WK FOR 20 WK BEGINNING 1 WK POST CARCINOGEN DOSE (STUDY DURATION: 21 WK), Route [Carcinogen]: DERMAL, Route [Promoter]: DERMAL, Species: MOUSE, Strain/Sex: CD-1/FEMALE",skin: tumors
same,outcome,"Carcinogen: 7,12-DIMETHYLBENZ[A]ANTHRACENE, 57-97-6, Doses [Carcinogen]: 200 NMOL IN 200 µL ACETONE ONCE, Doses [Promoter]: 0, 200 NMOL IN 200 µL ACETONE 3/WK FOR 20 WK BEGINNING 1 WK POST CARCINOGEN DOSE (STUDY DURATION: 21 WK), Route [Carcinogen]: DERMAL, Route [Promoter]: DERMAL, Species: MOUSE, Strain/Sex: CD-1/MALE",skin: tumors
same,outcome,"Carcinogen: 7,12-DIMETHYLBENZ[A]ANTHRACENE, 57-97-6, Doses [Carcinogen]: 200 NMOL IN 200 µL ACETONE ONCE, Doses [Promoter]: 0, 200 NMOL IN 200 µL ACETONE 3/WK FOR 20 WK BEGINNING 4 WK POST CARCINOGEN DOSE ADMINISTERED TO OVARIECTOMIZED MICE (ST, Route [Carcinogen]: DERMAL, Route [Promoter]: DERMAL, Species: MOUSE, Strain/Sex: CD-1/FEMALE",skin: tumors
O=C(O)O,outcome,"Carcinogen: N-BUTYL-N-(4-HYDROXYBUTYL)NITROSAMINE, 3817-11-6, Doses [Carcinogen]: 0.05% IN DRINKING WATER FOR 4 WK, Doses [Promoter]: 0, 3% IN DIET FOR 32 WK BEGINNING 3 D POST LAST CARCINOGEN DOSE (STUDY DURATION: 36 WK, 3 D), Route [Carcinogen]: ORAL, Route [Promoter]: ORAL, Species: RAT, Strain/Sex: F344/MALE","urinary bladder: papilloma, carcinoma"
same,outcome,"Carcinogen: N-BUTYL-N-(4-HYDROXYBUTYL)NITROSAMINE, 3817-11-6, Doses [Carcinogen]: 0.05% IN DRINKING WATER FOR 4 WK, Doses [Promoter]: 0, 3.36% IN DIET BEGINNING POST LAST CARCINOGEN DOSE AND CONTINUING FOR 32 WK (STUDY DURATION: 37 WK), Route [Carcinogen]: ORAL, Route [Promoter]: ORAL, Species: RAT, Strain/Sex: WISTAR/MALE",urinary bladder: papilloma
same,outcome,"Carcinogen: N-BUTYL-N-(4-HYDROXYBUTYL)NITROSAMINE; 3817-11-6; Doses [Carcinogen]: 0.05% IN DRINKING WATER FOR 4 WK; Doses [Promoter]: 0; 4% IN DIET BEGINNING POST LAST CARCINOGEN DOSE AND CONTINUING FOR 32 WK STUDY DURATION: 37 WK), Route [Carcinogen]: ORAL, Route [Promoter]: ORAL, Species: RAT, Strain/Sex: WISTAR/MALE",urinary bladder: papilloma
same,outcome,"Carcinogen: O-PHENYLPHENOL, 90-43-7, Doses [Carcinogen]: 1.25% IN DIET FOR 104 WK, Doses [Promoter]: 0, 0.16% IN DIET FOR 104 WK (STUDY DURATION: 104 WK), Route [Carcinogen]: ORAL, Route [Promoter]: ORAL, Species: RAT, Strain/Sex: F344/MALE",bladder: carcinoma
same,outcome,"Carcinogen: O-PHENYLPHENOL, 90-43-7, Doses [Carcinogen]: 1.25% IN DIET FOR 104 WK, Doses [Promoter]: 0, 0.32% IN DIET FOR 104 WK (STUDY DURATION: 104 WK), Route [Carcinogen]: ORAL, Route [Promoter]: ORAL, Species: RAT, Strain/Sex: F344/MALE",bladder: carcinoma
same,outcome,"Carcinogen: O-PHENYLPHENOL, 90-43-7, Doses [Carcinogen]: 1.25% IN DIET FOR 104 WK, Doses [Promoter]: 0, 0.64% IN DIET FOR 104 WK (STUDY DURATION: 104 WK), Route [Carcinogen]: ORAL, Route [Promoter]: ORAL, Species: RAT, Strain/Sex: F344/MALE",bladder: carcinoma
O=CC=O,outcome,"Carcinogen: N-METHYL-N'-NITRO-N-NITROSOGUANIDINE, 70-25-7, Doses [Carcinogen]: 100 MG/L IN DRINKING WATER FOR 8 WK, Doses [Promoter]: 0, 0.5% IN DRINKING WATER BEGINNING POST LAST CARCINOGEN DOSE AND CONTINUING FOR 32 WK (STUDY DURATION: 40 WK), Route [Carcinogen]: ORAL, Route [Promoter]: ORAL, Species: RAT, Strain/Sex: WISTAR/MALE",glandular stomach (pylorus): adenocarcinoma
CC1=C2C(=CO[C@H](C)[C@H]2C)C(=O)C(C(=O)O)=C1O,outcome,"Carcinogen: OCHRATOXIN A, 303-47-9, Doses [Carcinogen]: 0.25 ML OF A 50 PPM SOLUTION 2/WK FOR 20 WK, Doses [Promoter]: 0, 0.25 ML OF 50 PPM SOLUTION 2/WK FOR 20 WK ADMINISTERED SIMULTANEOUSLY WITH CARCINOGEN TREATMENT (STUDY DURATION: 20 W, Route [Carcinogen]: GAVAGE, Route [Promoter]: GAVAGE, Species: MOUSE, Strain/Sex: ALBINO/MALE,FEMALE",kidney: tumor
same,outcome,"Carcinogen: OCHRATOXIN A, 303-47-9, Doses [Carcinogen]: 0.25 ML OF A 50 PPM SOLUTION 2/WK FOR 20 WK, Doses [Promoter]: 0, 0.25 ML OF A 50 PPM SOLUTION ADMINISTERED SIMULTANEOUSLY WITH CARCINOGEN DOSE 2/WK FOR 20 WK (STUDY DURATION: 20 WK), Route [Carcinogen]: GAVAGE, Route [Promoter]: GAVAGE, Species: MOUSE, Strain/Sex: SWISS/MALE,FEMALE",kidney: tumor
CN(C)c1ncnc2nc[nH]c12,outcome,"Carcinogen: DIETHYLNITROSAMINE, 55-18-5, 2-ACETYLAMINOFLUORENE, 53-96-3, CARBON TETRACHLORIDE, 56-23-5, Carcinogen: DIETHYLNITROSAMINE, 55-18-5, 2-ACETYLAMINOFLUORENE, 53-96-3, CARBON TETRACHLORIDE, 56-23-5, Doses [Carcinogen]: 200 MG/KG BW ONCE FOLLOWED 2 WK LATER BY 0.03% 2-ACETYLAMINOFLUORENE IN DIET FOR 2 WK PLUS 2 ML/KG CARBON TETRACHLORIDE, Doses [Promoter]: 0, 0.015% IN DIET FOR 21 WK BEGINNING AT END OF INITIATION PHASE (STUDY DURATION: 25 WK), Route [Carcinogen]: INTRAPERITONEAL, ORAL, Route [Carcinogen]: INTRAPERITONEAL, ORAL, Route [Promoter]: ORAL, Species: RAT, Strain/Sex: WISTAR/MALE",liver: hepatocellular carcinoma
same,outcome,"Carcinogen: DIETHYLNITROSAMINE, 55-18-5, Doses [Carcinogen]: 200 MG/KG BW ONCE, Doses [Promoter]: 0, 0.005, 0.02% IN DIET FOR 23 WK BEGINNING 2 WK POST CARCINOGEN TREATMENT (STUDY DURATION: 25 WK), Doses [Promoter]: 0, 0.005, 0.02% IN DIET FOR 23 WK BEGINNING 2 WK POST CARCINOGEN TREATMENT (STUDY DURATION: 25 WK), Route [Carcinogen]: INTRAPERITONEAL, Route [Promoter]: ORAL, Species: RAT, Strain/Sex: WISTAR/MALE",liver: hepatocellular carcinoma
C1COCCO1,outcome,"Carcinogen: 7,12-DIMETHYLBENZ(A)ANTHRACENE, Doses [Carcinogen]: TOP, Route [Carcinogen]: DERMAL, Route [Promoter]: DERMAL, Species: MOUSE, Strain/Sex: MALE,FEMALE",integumentary system (skin)
O=C1NC(=O)C(c2ccccc2)(c2ccccc2)N1,outcome,"Carcinogen: N,N-DIETHYLNITROSAMINE, 55-18-5, Doses [Carcinogen]: 75 MG/KG IN SALINE ONCE AT 5 WK OF AGE, Doses [Promoter]: 0, 500, 1500 PPM IN DIET FOR 45 WK BEGINNING 2 WK POST CARCINOGEN TREATMENT (STUDY DURATION: 47 WK), Doses [Promoter]: 0, 500, 1500 PPM IN DIET FOR 45 WK BEGINNING 2 WK POST CARCINOGEN TREATMENT (STUDY DURATION: 47 WK), Route [Carcinogen]: INTRAPERITONEAL, Route [Promoter]: ORAL, Species: RAT, Strain/Sex: F344/MALE",liver: hepatocellular adenoma
same,outcome,"Carcinogen: N,N-DIETHYLNITROSAMINE, 55-18-5, Doses [Carcinogen]: 75 MG/KG IN SALINE ONCE AT 5 WK OF AGE, Doses [Promoter]: 0, 500, 1500 PPM IN DIET FOR 46-72 WK BEGINNING 2 WK POST CARCINOGEN TREATMENT (STUDY DURATION: 46-72 WK), Doses [Promoter]: 0, 500, 1500 PPM IN DIET FOR 46-72 WK BEGINNING 2 WK POST CARCINOGEN TREATMENT (STUDY DURATION: 46-72 WK), Route [Carcinogen]: INTRAPERITONEAL, Route [Promoter]: ORAL, Species: RAT, Strain/Sex: F344/MALE",liver: hepatocellular adenoma
same,outcome,"Carcinogen: N-NITROSODIETHYLAMINE, 55-18-5, Doses [Carcinogen]: 90 MG/KG BW IN TRICAPRYLIN ONCE, Doses [Promoter]: 0, 500 PPM IN DIET FOR 53 WK BEGINNING 2 WK POST CARCINOGEN DOSE (STUDY DURATION: 55 WK), Route [Carcinogen]: INTRAPERITONEAL, Route [Promoter]: ORAL, Species: MOUSE, Strain/Sex: D2B6F1/MALE",liver: tumor
